From US20240217978A1 (CHONG KUN DANG PHARMACEUTICAL CORP., priority 2021, published 2024)

molecular target: human adenosine A2a receptor (Homo sapiens (Human), UniProt P29274); assay: A2a receptor binding affinity, [3H]-NECA radioligand binding test; conditions: [3H]-NECA 37 nM; membrane from HEK-293 cells transfected with human adenosine A2a receptor
In short: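 IC50 values (μM) come from displacement of [3H]-NECA, used at 37 nM final, on human A2a receptor membranes from transfected HEK-293 cells. Incubation lasted one hour at room temperature in Tris/MgCl2/EDTA buffer, pH 7.4; filter-bound radioactivity was counted by scintillation.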

human adenosine A2a receptor, sequence (P29274 whole entry): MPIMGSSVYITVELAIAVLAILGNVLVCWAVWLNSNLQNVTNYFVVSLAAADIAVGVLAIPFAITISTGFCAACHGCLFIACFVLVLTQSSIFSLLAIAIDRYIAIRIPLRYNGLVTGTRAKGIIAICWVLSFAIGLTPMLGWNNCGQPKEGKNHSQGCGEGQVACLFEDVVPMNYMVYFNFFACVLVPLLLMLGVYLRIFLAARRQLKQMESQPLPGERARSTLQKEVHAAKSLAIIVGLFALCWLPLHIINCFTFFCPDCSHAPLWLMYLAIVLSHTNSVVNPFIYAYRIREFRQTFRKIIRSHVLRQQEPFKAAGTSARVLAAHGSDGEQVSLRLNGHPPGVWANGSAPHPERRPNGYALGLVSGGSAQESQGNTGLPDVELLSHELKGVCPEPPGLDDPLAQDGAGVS

Question: With Nc1nc(N2CCC[C@H]2C(=O)N2CCN(c3ncccc3C(F)(F)F)CC2)nc2nc(-c3ccco3)nn12 [Example 124, (S)-(1-(7-amino-2-(furan-2-yl)-[1,2,4]triazolo[1,5-a][1,3,5]triazin-5-yl)pyrrolidin-2-yl)(4-(3-(trifluoromethyl)pyridin-2-yl)piperazin-1-yl)methanone] as the molecule, how does the IC50 read?
Answer: Its IC50 is 2 nM.

Question: For Nc1nc(N2CCC[C@H]2C(=O)N2CCN(c3nccs3)CC2)nc2nc(-c3ccco3)nn12 [Example 125, 2-(4-((7-amino-2-(furan-2-yl)-[1,2,4]triazolo[1,5-a][1,3,5]triazin-5-yl)-L-prolyl)piperazin-1-yl)thiazole], which IC50 is on record?
Answer: Its IC50 is 9 nM.

Question: Which IC50 does the source give for Nc1nc(N2CCC[C@H]2C(=O)N2CCN(c3cnccn3)CC2)nc2nc(-c3ccco3)nn12 [Example 126, (S)-(1-(7-amino-2-(furan-2-yl)-[1,2,4]triazolo[1,5-a][1,3,5]triazin-5-yl)pyrrolidin-2-yl)(4-(pyrazin-2-yl)piperazin-1-yl)methanone] here?
Answer: The IC50 was 9 nM.

Question: With Nc1nc(N2CCC[C@H]2C(=O)N2CCN(c3ncccn3)CC2)nc2nc(-c3ccco3)nn12 [Example 127, (S)-(1-(7-amino-2-(furan-2-yl)-[1,2,4]triazolo[1,5-a][1,3,5]triazin-5-yl)pyrrolidin-2-yl)(4-(pyrimidin-2-yl)piperazin-1-yl)methanone] as the molecule, how does the IC50 read?
Answer: Its IC50 is 3 nM.

Question: How did the IC50 turn out when Nc1nc(N2CCC[C@H]2C(=O)N2CCC(c3ccccc3)CC2)nc2nc(-c3ccco3)nn12 [Example 128, (S)-(1-(7-amino-2-(furan-2-yl)-[1,2,4]triazolo[1,5-a][1,3,5]triazin-5-yl)pyrrolidin-2-yl)(4-phenylpiperidin-1-yl)methanone] was run?
Answer: The IC50 was 3 nM.

Question: With CC1CN(C(=O)[C@H](C)Nc2nc(N)n3nc(-c4ccco4)nc3n2)CC(C)N1C(=O)N1CCOCC1 (stereo partly drawn) [Example 129, (2S)-2-((7-amino-2-(furan-2-yl)-[1,2,4]triazolo[1,5-a][1,3,5]triazin-5-yl)amino)-1-(3,5-dimethyl-4-(morpholine-4-carbonyl)piperazin-1-yl)propan-1-one] as the molecule, how does the IC50 read?
Answer: The IC50 was 10 nM.

Question: CCc1cccc(NC(=O)C2CCN(C(=O)[C@@H]3CCCN3c3nc(N)n4nc(-c5ccco5)nc4n3)CC2)c1 [Example 131, 1-((7-amino-2-(furan-2-yl)-[1,2,4]triazolo[1,5-a][1,3,5]triazin-5-yl)-L-prolyl)-N-(3-ethylphenyl)piperidin-4-carboxamide] was tested. Which IC50 did it give?
Answer: Its IC50 is 4 nM.

Question: With Nc1nc(N2CCC[C@H]2C(=O)N2CCC(C(=O)Nc3cccc(C(F)F)c3)CC2)nc2nc(-c3ccco3)nn12 [Example 132, 1-((7-amino-2-(furan-2-yl)-[1,2,4]triazolo[1,5-a][1,3,5]triazin-5-yl)-L-prolyl)-N-(3-(difluoromethyl)phenyl)piperidin-4-carboxamide] as the molecule, how does the IC50 read?
Answer: The IC50 was 11 nM.

Question: Which IC50 does the source give for CN(C(=O)C1CCN(C(=O)[C@@H]2CCCN2c2nc(N)n3nc(-c4ccco4)nc3n2)CC1)c1ccccc1 [Example 133, 1-((7-amino-2-(furan-2-yl)-[1,2,4]triazolo[1,5-a][1,3,5]triazin-5-yl)-L-prolyl)-N-methyl-N-phenylpiperidin-4-carboxamide] here?
Answer: Its IC50 is 11 nM.

Question: Which IC50 does the source give for CN1CCN(C(=O)[C@@H]2CCCN2c2nc(N)n3nc(-c4ccco4)nc3n2)CC1 [Example 134, (S)-(1-(7-amino-2-(furan-2-yl)-[1,2,4]triazolo[1,5-a][1,3,5]triazin-5-yl)pyrrolidin-2-yl)(4-methylpiperazin-1-yl)methanone] here?
Answer: The IC50 was 86 nM.

Question: With CCCN1CCN(C(=O)[C@@H]2CCCN2c2nc(N)n3nc(-c4ccco4)nc3n2)CC1 [Example 135, (S)-(1-(7-amino-2-(furan-2-yl)-[1,2,4]triazolo[1,5-a][1,3,5]triazin-5-yl)pyrrolidin-2-yl)(4-propylpiperazin-1-yl)methanone] as the molecule, how does the IC50 read?
Answer: The IC50 was 24 nM.

Question: Which IC50 does the source give for CC(C)N1CCN(C(=O)[C@@H]2CCCN2c2nc(N)n3nc(-c4ccco4)nc3n2)CC1 [Example 136, (S)-(1-(7-amino-2-(furan-2-yl)-[1,2,4]triazolo[1,5-a][1,3,5]triazin-5-yl)pyrrolidin-2-yl)(4-isopropylpiperazin-1-yl)methanone] here?
Answer: The IC50 was 4 nM.

Question: For CC(C)(C)N1CCN(C(=O)[C@@H]2CCCN2c2nc(N)n3nc(-c4ccco4)nc3n2)CC1 [Example 137, (S)-(1-(7-amino-2-(furan-2-yl)-[1,2,4]triazolo[1,5-a][1,3,5]triazin-5-yl)pyrrolidin-2-yl)(4-(tert-butyl)piperazin-1-yl)methanone], which IC50 is on record?
Answer: The IC50 was 48 nM.

Question: With CCCCCN1CCN(C(=O)[C@@H]2CCCN2c2nc(N)n3nc(-c4ccco4)nc3n2)CC1 [Example 138, (S)-(1-(7-amino-2-(furan-2-yl)-[1,2,4]triazolo[1,5-a][1,3,5]triazin-5-yl)pyrrolidin-2-yl)(4-pentylpiperazin-1-yl)methanone] as the molecule, how does the IC50 read?
Answer: The IC50 was 2 nM.

Question: How did the IC50 turn out when Nc1nc(N2CCC[C@H]2C(=O)N2CCN(C3CC3)CC2)nc2nc(-c3ccco3)nn12 [Example 139, (S)-(1-(7-amino-2-(furan-2-yl)-[1,2,4]triazolo[1,5-a][1,3,5]triazin-5-yl)pyrrolidin-2-yl)(4-cyclopropylpiperazin-1-yl)methanone] was run?
Answer: Its IC50 is 28 nM.

Question: How did the IC50 turn out when CC(C)OCCN1CCN(C(=O)[C@@H]2CCCN2c2nc(N)n3nc(-c4ccco4)nc3n2)CC1 [Example 140, (S)-(1-(7-amino-2-(furan-2-yl)-[1,2,4]triazolo[1,5-a][1,3,5]triazin-5-yl)pyrrolidin-2-yl)(4-(2-isopropoxyethyl)piperazin-1-yl)methanone] was run?
Answer: Its IC50 is 10 nM.

Question: For COCCOCCN1CCN(C(=O)[C@@H]2CCCN2c2nc(N)n3nc(-c4ccco4)nc3n2)CC1 [Example 141, (S)-(1-(7-amino-2-(furan-2-yl)-[1,2,4]triazolo[1,5-a][1,3,5]triazin-5-yl)pyrrolidin-2-yl)(4-(2-(2-methoxyethoxy)ethyl)piperazin-1-yl)methanone], which IC50 is on record?
Answer: The IC50 was 15 nM.

Question: With Nc1nc(N2CCC[C@H]2C(=O)N2CCC(C(=O)N3CCCCC3)CC2)nc2nc(-c3ccco3)nn12 [Example 142, (1-((7-amino-2-(furan-2-yl)-[1,2,4]triazolo[1,5-a][1,3,5]triazin-5-yl)-L-prolyl)piperidin-4-yl)(piperidin-1-yl)methanone] as the molecule, how does the IC50 read?
Answer: The IC50 was 13 nM.

Question: With CCCCN1CCN(C(=O)[C@@H](Nc2nc(N)n3nc(-c4ccco4)nc3n2)C(C)C)CC1 [Example 143, (S)-2-((7-amino-2-(furan-2-yl)-[1,2,4]triazolo[1,5-a][1,3,5]triazin-5-yl)amino)-1-(4-butylpiperazin-1-yl)-3-methylbutan-1-one] as the molecule, how does the IC50 read?
Answer: The IC50 was 20 nM.

Question: For CC(C)[C@H](Nc1nc(N)n2nc(-c3ccco3)nc2n1)C(=O)N1CCN(CC(F)(F)F)CC1 [Example 144, (S)-2-((7-amino-2-(furan-2-yl)-[1,2,4]triazolo[1,5-a][1,3,5]triazin-5-yl)amino)-3-methyl-1-(4-(2,2,2-trifluoroethyl)piperazin-1-yl)butan-1-one], which IC50 is on record?
Answer: The IC50 was 14 nM.

Question: Which IC50 does the source give for CN1CCN(C(=O)[C@@H]2CCCN2c2nc(N)n3nc(-c4ccco4)nc3n2)CC1=O [Example 145, 4-((7-amino-2-(furan-2-yl)-[1,2,4]triazolo[1,5-a][1,3,5]triazin-5-yl)-L-prolyl)-1-methylpiperazin-2-one] here?
Answer: Its IC50 is 13 nM.

Question: COC1CCN(C(=O)[C@@H]2CCCN2c2nc(N)n3nc(-c4ccco4)nc3n2)CC1 [Example 146, (S)-(1-(7-amino-2-(furan-2-yl)-[1,2,4]triazolo[1,5-a][1,3,5]triazin-5-yl)pyrrolidin-2-yl)(4-methoxypiperidin-1-yl)methanone] was tested. Which IC50 did it give?
Answer: The IC50 was 18 nM.
